Laboratory results from patent US20220079952A1, “Uses of Radiation and Benzodiazepine Derivatives in Cancer Therapies” (Emory University, priority 2019, published 2022).

Tests used:
GABAAR [1] = assay: Whole-cell patch clamp electrophysiology in A375 melanoma cells; type: cell-based, human; conditions: for mode of action at GABAAR from electrophysiology: A375 and B16F10 cells; for EC50: read-out: EC50, enhancement of the effect of GABA, [GABA]=1 μM, benzodiazepine 0-10 μM
Experimental: (§1) GABAAR is an anion (Cl—) channel that changes the transmembrane potential of cells, either depolarizing or hyperpolarizing depending upon channel directionality and activity of other membrane transport protein. To establish autonomous expression of GABAAR subunits in melanoma cell lines results in assembly of a functional ligand-dependent channel, electrophysiological testing was performed in human melanoma (A375) and murine (B16F10) lines. Patch clamp currents were recorded for A375 and B16F10. […] A fully functional benzodiazepine binding site requires assembly of a GABAAR with a canonical αβαβγ subunit stoichiometry.
(§2) Two benzodiazepines were tested (QH-II-066 and KRM-II-08). QH-II-066 and KRM-II-08 differ in having H and F at R2′ of the benzene ring of benzodiazepine, respectively.

GABAAR [2] = assay: Whole-cell patch clamp electrophysiology in B16F10 melanoma cells; type: cell-based, murine; conditions: for EC50: read-out: EC50, enhancement of the effect of GABA, [GABA]=1 μM, benzodiazepine 0-10 μM
Experimental: as §1, §2

A375 cells = assay: Melanoma cell viability, 48 hours treatment, A375; type: cell-based, human; conditions: for IC50: Homo sapiens, A-375, A375, 48 hours, read-out: IC50, reduction in cell viability; for effect on cell viability: A375
Experimental: (§3) The electrophysiology whole-cell patch clamp experiments occur within a minute. […] To determine their effect on melanoma cell survival, A375 and B16F10 were treated with QH-II-066, KRM-II-08, or diazepam for 48 hours.

B16F10 cells = assay: Melanoma cell viability, 48 hours treatment, B16F10; type: cell-based, murine; conditions: for IC50: Mus musculus, B16-F10, B16F10, 48 hours, read-out: IC50, reduction in cell viability; for effect on cell viability: B16F10
Experimental: as §3

A375 and B16F10 cells = assay: p53 expression and mitochondrial transmembrane potential in melanoma cells; type: cell-based, human and murine
Experimental: Changes induced by the benzodiazepine as a consequence of creating a net efflux of chloride anion, included an upregulation of TP53 and a depolarization of the mitochondrial transmembrane potential, ultimately resulting in apoptosis via the intrinsic mitochondria-mediated pathway. Thus, Experiments were performed to determine if benzodiazepine elicited a similar response in A375 and B16F10 cells.

B16F10-GP tumor = assay: B16F10-GP syngeneic melanoma murine model, bilateral flank tumors, tumor volume; type: in vivo, C57BL/6 mice
Experimental: The clinical observation of improved outcome for RT-ICI was analyzed using a murine model. B16F10-GP cells (0.5×10^5) were implanted in both right and left flanks of C57BL/6 mice (FIG. 1A). A single dose of radiation at 10 Gy was delivered to the right flank only using a 0.5 cm bolus material, on Day 10 after implanting the melanoma cells. Day 10 was chosen to allow for growth of tumor cells in flanks to the point where they became palpable. […] Anti-PD-L1 was given by intraperitoneal injection every third day.
Since melanoma cell viability in vitro was impaired by benzodiazepines QH-II-066 and KRM-II-08, experiments were performed to determine if benzodiazepine had anti-tumor activity in vivo. […] Given that immune checkpoint inhibitor efficacy is enhanced by radiation therapy, experiments were performed to determine whether RT combined with QH-II-066 synergize to control ipsilateral and abscopal tumor volume using the B16F10-GP syngeneic melanoma murine model. B16F10-GP melanoma cells were implanted (0.5×10^5) in both right and left flanks of C57BL/6 mice (FIG. 3B). A single dose of radiation (either 10 or 5 Gy) was delivered to the right flank on Day 10 after implanting of B16F10-GP cells. […] There was no difference when using different radiation doses (10 or 5 Gy).
Having observed that QH-II-066 could sensitize a melanoma tumor to radiation and that expression of genes with roles in the cytokine:cytokine receptor interaction pathway was enhanced, experiments were performed to determine if QH-II-066 was capable of potentiating the programmed death ligand 1 immune checkpoint inhibitor (anti-PD-L1). B16F10-GP melanoma cells were implanted in both the right and left flanks of C57BL/6 mice. Day 10 in both the right and left flanks injected i.p.: (i) QH-II-066 (10 mg/kg), then every day for seven days; (ii) anti-PD-L1 (200 μg), then every third day thereafter; (iii) QH-II-066 (10 mg/kg) and anti-PD-L1 (200 μg) at time and frequency detailed for monotherapy treatment groups (FIG. 5).
Having observed potentiation of radiation and anti-PD-L1 by QH-II-066 individually, there might be a more significant tumor response if we administered a ‘combo’ consisting of radiation (5 Gy), anti-PD-L1, plus QH-II-066. As before, B16F10-GP melanoma cells were implanted in both the right and left flanks of C57BL/6 mice (FIG. 5). The following experimental groups were tested: (i) vehicle alone control; (ii) QH-II-066 alone (10 mg/kg); (iii) a single morning dose of radiation (5 Gy) delivered to the right flank, followed by evening dose of QH-II-066 (10 mg/kg); (iv) anti-PD-L1 plus QH-II-066; (v) a single morning dose of radiation (5 Gy) delivered to the right flank, followed by an evening dose of anti-PD-L1; (vi) a triple or combo therapy, consisting of a single morning dose of radiation (5 Gy) delivered to the right flank, followed by evening doses of anti-PD-L1 plus QH-II-066. After initial i.p. injection of QH-II-066 on Day 10, QH-II-066 was injected i.p. every day for seven days; while anti-PD-L1 was injected i.p. every third day thereafter.
B16F10-GP cell line was grown in Dulbecco's Modified Eagle's medium (DMEM) supplemented with 10% Fetal Bovine Serum, 100 U/mL penicillin and 100 μg/mL streptomycin, 2 mM glutamine. Cells were cultured at 37° C. with 5% CO2.
B16F10-GP melanoma cells ([…]) were implanted in matrigel (25%) on right and left flank of 6-8 week old female C57BL/6 mice (Jackson Laboratories, Bar Harbor, Me.). […]

[3] = test system: CD8+ T cells in B16F10-GP tumors; assay: Immunophenotyping of tumor infiltrating lymphocytes of bilateral B16F10-GP tumors by flow cytometry; type: in vivo, C57BL/6 mice
Experimental: Mice were sacrificed and tumor infiltrating lymphocytes (TILs) were isolated, stained, and analyzed using flow cytometry. For cytokine analysis, TILs were stimulated with GP33 peptide for 6 hours in presence of GolgiStop™ and GolgiPlug™ and analyzed using flow cytometry. Tumor weight and Lymphocyte number per gram tumor.
To determine whether these apparent synergistic effects were mediated by an enhanced immune response, immunophenotyping of bilateral tumors was performed. […] (FIG. 4A-4E).

[4] = test system: medulloblastoma cancer cells; conditions: sustained incubation; cited from earlier work
[5] = non-human primates, previously tested; cited from earlier work

| Compound | mode of action at GABAAR from electrophysiology (GABAAR [1]) | EC50 (GABAAR [1]; A375 cells) [nM] | EC50 (GABAAR [2]) [nM] | IC50 (A375 cells) [nM] | IC50 (B16F10 cells) [nM] | effectiveness in impairing cell viability versus diazepam [4] | effect on cell viability (A375 cells) | effect on cell viability (B16F10 cells) | other results |
| --- | --- | --- | --- | --- | --- | --- | --- | --- | --- |
| C#Cc1ccc2c(c1)C(c1ccccc1)=NCC(=O)N2C [QH-II-066, 7-ethynyl-1-methyl-5-phenyl-1,3-dihydro-2H-benzo[e][1,4]diazepin-2-one] | GABAAR positive allosteric modulators | 900 ± 400 | 160 ± 90 | 2700 ± 200 | 8200 ± 900 | more than an order of magnitude improved effectiveness |  |  | expression of p53 (A375 and B16F10 cells): enhanced expression of p53; time to depolarization of the mitochondrial transmembrane potential (A375 and B16F10 cells): ≤ 10 min; ipsilateral and abscopal tumor effect, combo of radiation, anti-PD-L1 and QH-II-066 (B16F10-GP tumor; 5 Gy right flank Day 10, then anti-PD-L1 200 μg every third day plus QH-II-066 10 mg/kg daily 7 days): complete tumor regression in some animals; B16F10-GP tumor growth, monotherapy dose response (B16F10-GP tumor; 10, 25 and 50 mg/kg i.p. daily for a week, negligible difference between 25 and 50 mg/kg): dose-dependent reduction; anti-tumor effect on ipsilateral and contralateral tumor, combination with radiation therapy (B16F10-GP tumor; 10 or 5 Gy right flank Day 10, then QH-II-066 10 mg/kg daily 7 days): strongly synergistic anti-tumor effect; tumor volume, dual therapy QH-II-066 and anti-PD-L1 (B16F10-GP tumor; QH-II-066 10 mg/kg daily 7 days plus anti-PD-L1 200 μg every third day): most significant reduction in tumor volume; tumor volume, monotherapy (B16F10-GP tumor; QH-II-066 10 mg/kg i.p. daily 7 days or anti-PD-L1 200 μg i.p. every third day, from Day 10): comparable reductions in tumor volume; CD8+ T cell infiltration of ipsilateral tumor, radiation in combination with QH-II-066 ([3]; 10 or 5 Gy plus QH-II-066, compared to vehicle): enhanced infiltration of CD8+ T cells; CD8+ T cell infiltration of tumor, QH-II-066 alone ([3]; QH-II-066 10 mg/kg alone, compared to vehicle): did not induce CD8+ T cell infiltration; antigen-specific, poly-functional T cells (expressing IFN-γ and TNF-α) in ipsilateral and contralateral tumors ([3]; ipsilateral radiation therapy + systemic QH-II-066): significant increase; adverse side effects or toxicity [5]: without any adverse side effects or toxicity |
| CN1C(=O)CN=C(c2ccccc2)c2cc(Cl)ccc21 [diazepam, reference compound] |  |  |  |  |  |  | no effect | no effect |  |
| CC(=O)[C@H]1CC[C@H]2[C@@H]3CC[C@H]4C[C@H](O)CC[C@]4(C)[C@H]3CC[C@]12C [Allopregnanolone, allopregnanolone, reference compound] |  |  |  |  |  |  | does not impair | does not impair |  |
| C#Cc1ccc2c(c1)C(c1ccccc1F)=NCC(=O)N2C [KRM-II-08, 7-ethynyl-5-(2-fluorophenyl)-1-methyl-1,3-dihydro-2H-benzo[e][1,4]diazepin-2-one] | GABAAR positive allosteric modulators | 1700 ± 200 | 200 ± 100 | 1330 ± 80 | 6100 ± 800 | more than an order of magnitude improved effectiveness |  |  |  |
| NCCCC(=O)O [GABA, gamma-aminobutyric acid, reference compound] |  |  |  |  |  |  |  |  | maximal response to GABA (current) (GABAAR [1]; A375 cells, patch clamp, n=8): −230±41 pA; maximal response to GABA (current) (GABAAR [2]; patch clamp, n=6): −430±70 pA |
